Two substances from patent US20120093735A1, “COMPLEX COMPOUND AND MRI PROBE MADE OF SAME” (priority 2005, published 2012) can be followed below.

What all share (assay type): physicochemical
Assay [1] in a line: Relaxivity R1 of KMR-Ca001 in the presence of iron ion. Particulars: 0.05M Tris/HCl pH 7.4, 0.47 T, 40° C.; iron ion per se has relaxing capability. The method, then:
(§1) Solutions of KMR-Ca001 (0.6 mM) and CaCl2 (0, 0.01, 0.1, 0.2, 0.3, 0.4, 0.5, 0.6, 0.7, 0.8, 1.0, 1.2, 3.0, 10, 30, 100mM) in 0.05M Tris/HCl buffer, pH 7.4, were prepared in an amount of 2 mL, respectively. Each solution was measured for the longitudinal relaxation time T1 three times using NMS 120 Minispec NMR ANALYZER (0.47 T, 40° C., IR pulse). Then each solution was sequentially diluted to attain […] concentrations of 0.45 mM and 0.35 mM, respectively, and the longitudinal relaxation time T1 was measured therefor in the same manner. By taking [KMR-Ca001] along the abscissa and taking 1/T1 along the ordinate, relaxivity R1 was determined from the slope. Measurements of the longitudinal relaxation time were carried out in the same manner using NaCl, MgCl2 or FeCl3.

Assay [2] can be described thus: Relaxivity R1 of KMR-Ca001 depending on abundance of ions. Particulars: CaCl2 vs NaCl, MgCl2, FeCl3; 0.05M Tris/HCl pH 7.4, 0.47 T, 40° C. On the procedure: as §1
A short description of assay [3]: T1-weighted images of KMR-Ca001 solutions (1.5T MR scanner). The note with it: 0.05M Tris/HCl pH 7.4, 1.5T. The method, then: Water, solutions containing KMR-Ca001 alone at concentrations of 0.1, 0.3, 0.6, 1.0 and 3.0 mM, respectively, and solutions containing 0.3 mM KMR-Ca001 and CaCl2 at concentrations of 0.5, 0.6, 0.8, 1.0, 10.0, 20.0, 50.0, 80.0 mM, respectively, in 0.05M Tris/HCl buffer, pH 7.4, were prepared, and placed in glass tubes, respectively. These glass tubes were stood on agar contained in a Tupperware, and T1-weighted images were obtained by T1-weighted GRE using a 1.5T MR scanner (Signa Horzon LX, produced by GE Yokogawa Medical Systems).
As a result, as KMR-Ca001 increased, the T1-weighted images became whiter, so that it was confirmed that KMR-Ca001 functioned and effective as an MRI contrast agent. The T1-weighted images of the solutions containing 0.3 mM KMR-Ca001 to which calcium ion was added, as the calcium ion increases, coordination of water to gadolinium ion was more inhibited, so that T1-weighted image became darker. By this, it was confirmed that KMR-Ca001 is an MRI contrast agent which responds to calcium ion concentration.

The nature of assay [4]: Relaxivity R1 of KMR-K001 depending on abundance of ions. The note with it: KCl vs CaCl2, MgCl2, FeCl3; 0.05M Tris/HCl pH 7.4, 0.47 T, 40° C. On the procedure:
Solutions of KMR-K001 (1.0 mM) and KCl (0, 0.01, 0.1, 0.3, 0.6, 0.9, 1.2, 1.5, 1.8, 2.4, 3.0, 10, 30. 100 mM) in 0.05M Tris/HCl buffer, pH 7.4, were prepared in an amount of 2 mL, respectively. Each solution was measured for the longitudinal relaxation time T1 three times using NMS 120 Minispec NMR ANALYZER (0.47 T, 40° C., IR pulse). Then each solution was sequentially diluted to attain KMR-K001 concentrations of 0.9 mM and 0.8 mM, respectively, and the longitudinal relaxation time T1 was measured therefor. By taking [KMR-K001] along the abscissa and taking 1/T1 along the ordinate, relaxivity R1 was determined from the slope. Measurements of the longitudinal relaxation time were carried out in the same manner using CaCl2, MgCl2 or FeCl3.

The nature of assay [5]: Relaxivity R1 of KMR-K001 in the presence of zinc ion. Particulars: 0.05M Tris/HCl pH 7.4, 0.47 T, 40° C.; gadolinium ion liberated by ligand exchange.

With “{bis-[2-({[3-(bis-carboxymethyl-amino)-4-methoxy-phenylcarbamoyl]-methyl}-carboxymethyl-amino)-ethyl]-amino}-acetic acid gadolinium complex [KMR-Ca001]”, the “change of relaxivity in the presence of iron ion” value in assay [1] is reported as “the relaxivity is sharply increased”. The “ion selectivity of relaxivity R1 response” value in assay [2] is given as “selectively responds to calcium ion”. Further, in assay [3] (0.3 mM KMR-Ca001 with CaCl2 0.5-80.0 mM), the “T1-weighted image change with increasing calcium ion” value was “became darker”. For the same substance, in assay [3] (KMR-Ca001 alone 0.1-3.0 mM), the “T1-weighted image change with increasing probe concentration” value is “became whiter”.

Take “[bis-(2-{[(2-carboxy-(benzo-15-crown-5)-ethylcarbamoyl)-methyl]-carboxymethyl-amino}-ethyl)-amino]-acetic acid gadolinium complex [KMR-K001]”: the “ion selectivity of relaxivity R1 response” value in assay [4] is recorded as “selectively responds to potassium ion”. Further, the “change of relaxivity in the presence of zinc ion” value in assay [5] is “the relaxivity is sharply increased”.
